In brackets after ≈: the same amount, converted by molar mass. Ends that are not written are not given here. Peptide text beside a SMILES is read from it.
Assays:
Assay type in all cases: cell-based
[1] = system: Escherichia coli (ATCC 8739); details: for MBC Escherichia coli: ATCC 8739, 3 h
Source text: (§1) The following pathogenic bacterial strains were used: The Gram-positive Enterococcus faecalis (ATCC 29212), Staphylococcus aureus (HNCMO112011), Listeria monocytogenes (ATCC 19111) and the Gram-negative Pseudomonas aeruginosa (ATCC 27853), Escherichia coli (ATCC 8739), Salmonella enterica (ATCC 13076), Klebsiella pneumoniae (NCTC 13440), Acinetobacter baumannii (ATCC 17978) obtained from the ATCC (United States) and NCTC (National Collection of Type Cultures–England). For the antifungal experiment the Candida albicans W01 strain ([Ördögh et al., 2014]) was used. Antimicrobial activities of peptides against ∼10^7 log phase bacteria were tested in Potassium-Phosphate Buffer (PPB, pH 7.4) as described by [Jenei et al. (2020)] while anti-Candida assays were done according to [Szerencsés et al. (2021)]. The two-fold dilution series of peptides ranged from 25 μM to 0.125 μM, while that of the antibiotics ampicillin (Merck) and miconazole (Duchefa Biochemie) from […] to 0.1 μM. The lowest concentration of the antimicrobial agents, which completely eliminated viable bacteria or C. albicans were considered as the minimal bactericidal concentration (MBC) and minimal fungicidal concentration (MFC).
(§2) The minimal bactericidal concentrations (MBCs) were determined after 3 h of treatment of ∼10^7 log phase bacteria with 2-fold serial dilution of peptides from 25 µM to 0.8 µM. Only 25 of the 50 cationic M. truncatula peptides had activity at ≤25 µM (Supplementary Table S1). […] Three peptides were only active against two bacterial strains; NCR649 against L. monocytogenes and A. baumannii, NCR281 against L. monocytogenes and P. aeruginosa and NCR350 against A. baumannii and P. aeruginosa. […] None of the anionic NCR peptides affected the survival of the tested bacterial strains.

[2] = system: Pseudomonas aeruginosa (ATCC 27853)
Source text: as §1, §2

[3] = system: E. coli, S. enteritidis, P. aeruginosa, L. monocytogenes, S. aureus, E. faecalis, K. pneumoniae and A. baumannii; assay: Antimicrobial activity assay, spectrum over the eight tested pathogenic bacteria; details: 3 h treatment of ~10^7 log phase bacteria, peptides 25 to 0.8 µM; active = MBC ≤25 µM
Source text: as §1
We investigated the antimicrobial activity of 78 NCR peptides from M. truncatula and 12 NCRs from other IRLC legumes as well as their shorter derivatives against E. coli, S. enteritidis, P. aeruginosa, L. monocytogenes, S. aureus, E. faecalis, K. pneumoniae and A. baumannii (Supplementary Table S1). In the selection of the M. truncatula peptides, we considered their symbiotic expression levels but also their physicochemical properties. The antimicrobial activity of NCRs has so far been attributed to cationic peptides, with the exception of one anionic peptide. To investigate whether other anionic NCRs are antimicrobial, in addition to the cationic peptides, neutral and anionic NCRs were also included covering a broad range of peptides with different net charges (NC: from 7.8 to −10.2) and isoelectric points (pI: from 10.69 to 2.95). 50 peptides had positive net charge and pI > 7.0, while 28 peptides had negative net charge and pI < 7.0 (Supplementary Table S1A). Of the other legumes, only cationic NCR peptides were studied (Supplementary Table S1B).
as §2

[4] = system: Listeria monocytogenes (ATCC 19111); details: for Activity against L. monocytogenes: 3 h, ~10^7 log phase bacteria, peptides ≤25 µM
Source text: as §1, §2

[5] = system: Acinetobacter baumannii (ATCC 17978); assay: microbe, parasite or virus in culture; details: 3 h, ~10^7 log phase bacteria, peptides ≤25 µM
Source text: as §1, §2

[6] = 3 h, ~10^7 log phase bacteria, peptides ≤25 µM

Molecule | MBC Escherichia coli [1] [µM] | Antibacterial spectrum over the eight tested bacterial strains [3] | further results
CC(C)C[C@H](NC(=O)[C@H](CCCCN)NC(=O)[C@H](CC(C)C)NC(=O)[C@H](CS)NC(=O)[C@H](CCCCN)NC(=O)CNC(=O)[C@@H](N)Cc1ccccc1)C(=O)N[C@@H](CCCCN)C(N)=O [GoNCR308 (16-23)] (H-FGKCLKLK-NH2) | 25 (≈ 23.4 µg/mL) | – | MBC Pseudomonas aeruginosa ([2]; ATCC 27853, 3 h): 25 µM (≈ 23.4 µg/mL)
CC(C)[C@H](NC(=O)[C@H](CS)NC(=O)[C@@H](N)CCCCN)C(=O)N[C@@H](Cc1ccc(O)cc1)C(=O)N[C@H](C(=O)N1CCC[C@H]1C(=O)N[C@@H](CCCCN)C(=O)N[C@@H](CCCNC(=N)N)C(N)=O)[C@@H](C)O [GoNCR308 (23-30)] (H-KCVYTPKR-NH2) | 50 (≈ 49.7 µg/mL) | – | –
CC[C@H](C)[C@H](NC(=O)[C@H](CCCCN)NC(=O)[C@H](CC(=O)O)NC(=O)[C@@H]1CCCN1C(=O)[C@@H](N)Cc1ccccc1)C(=O)N[C@@H](Cc1ccccc1)C(=O)N[C@@H](Cc1ccccc1)C(=O)NCC(=O)N[C@@H](CC(=O)O)C(=O)N[C@@H](CS)C(=O)N[C@@H](CCC(N)=O)C(=O)N[C@H](C(=O)N[C@@H](CC(=O)O)C(=O)N[C@@H](CCCCN)C(=O)N[C@@H](CC(=O)O)C(=O)N[C@@H](CS)C(=O)N[C@@H](CCCCN)C(=O)N1CCC[C@H]1C(=O)N[C@@H](CCCCN)C(=O)N[C@@H](CCCNC(=N)N)C(=O)NCC(=O)N[C@H](C(=O)N[C@@H](CC(N)=O)C(=O)N[C@@H](Cc1ccccc1)C(=O)N[C@@H](CCCNC(=N)N)C(=O)N[C@@H](CS)C(=O)N[C@@H](CCCNC(=N)N)C(=O)N[C@@H](CCCCN)C(=O)NCC(=O)N[C@@H](CCCCN)C(=O)N[C@@H](CS)C(=O)N[C@@H](Cc1ccccc1)C(=O)N1CCC[C@H]1C(=O)N[C@H](C(=O)N[C@@H](CCCNC(=N)N)C(=O)O)C(C)C)C(C)C)[C@@H](C)O [MsNCR463] (H-FPDKIFFGDCQTDKDCKPKRGVNFRCRKGKCFPVR-OH; N-terminus assumed) | – | only effective against P. aeruginosa | Effective concentration (MBC) against P. aeruginosa ([2]; 3 h, ~10^7 log phase bacteria): 25 µM
CC[C@H](C)[C@H](NC(=O)[C@@H]1CCCN1C(=O)[C@@H]1CCCN1C(=O)[C@@H](NC(=O)[C@H](CS)NC(=O)[C@@H](NC(=O)CNC(=O)[C@H](CCCCN)NC(=O)[C@H](CCCNC(=N)N)NC(=O)[C@H](CS)NC(=O)[C@H](CCCNC(=N)N)NC(=O)[C@H](Cc1ccccc1)NC(=O)[C@H](CC(N)=O)NC(=O)[C@H](C)NC(=O)CNC(=O)[C@H](Cc1ccc(O)cc1)NC(=O)[C@H](CC(C)C)NC(=O)[C@H](CCCCN)NC(=O)[C@@H]1CCCN1C(=O)[C@H](CS)NC(=O)[C@H](CC(=O)O)NC(=O)[C@H](CCCCN)NC(=O)[C@H](CC(=O)O)NC(=O)[C@H](CCCNC(=N)N)NC(=O)[C@H](CCCCN)NC(=O)[C@H](CS)NC(=O)[C@H](CO)NC(=O)[C@H](CO)NC(=O)[C@@H](NC(=O)[C@H](Cc1ccccc1)NC(=O)[C@@H](NC(=O)CNC(=O)[C@H](CC(C)C)NC(=O)[C@@H](N)Cc1ccccc1)[C@@H](C)O)[C@@H](C)CC)[C@@H](C)O)C(C)C)C(=O)O [NCR035] (H-FLGTFISSCKRDKDCPKLYGANFRCRKGTCVPPI-OH; N-terminus assumed) | 12.5 (≈ 47.8 µg/mL) | – | Activity against E. coli [1, 6]: only effective
CSCC[C@H](NC(=O)[C@H](CCCNC(=N)N)NC(=O)[C@@H](NC(=O)[C@H](Cc1c[nH]c2ccccc12)NC(=O)[C@H](CCCNC(=N)N)NC(=O)[C@H](CS)NC(=O)[C@H](CCC(=O)O)NC(=O)CNC(=O)[C@H](CCCCN)NC(=O)[C@@H](NC(=O)[C@H](CS)NC(=O)[C@H](CCCCN)NC(=O)[C@H](Cc1ccccc1)NC(=O)[C@H](CCCNC(=N)N)NC(=O)[C@H](CCCCN)NC(=O)[C@@H](NC(=O)[C@H](CCCNC(=N)N)NC(=O)[C@@H](NC(=O)[C@H](CO)NC(=O)[C@@H]1CCCN1C(=O)[C@@H]1CCCN1C(=O)[C@H](CS)NC(=O)[C@H](CC(=O)O)NC(=O)[C@H](C)NC(=O)[C@H](CC(=O)O)NC(=O)[C@@H](NC(=O)[C@H](CCC(=O)O)NC(=O)[C@H](CS)NC(=O)[C@H](CC(N)=O)NC(=O)[C@@H](NC(=O)[C@@H](N)Cc1ccc(O)cc1)C(C)C)[C@@H](C)O)[C@@H](C)O)C(C)C)C(C)C)[C@@H](C)O)C(=O)N[C@@H](CO)C(=O)N[C@@H](Cc1ccc(O)cc1)C(=O)N[C@@H](C)C(=O)O [NCR086] (H-YVNCETDADCPPSTRVKRFKCVKGECRWTRMSYA-OH; N-terminus assumed) | – | – | MBC Listeria monocytogenes ([4]; ATCC 19111, 3 h): 25 µM (≈ 100 µg/mL)
CC[C@H](C)[C@H](NC(=O)[C@@H]1CCCN1C(=O)[C@H](CO)NC(=O)[C@@H](N)CO)C(=O)N[C@@H](CCCNC(=N)N)C(=O)N[C@H](C(=O)N[C@H](C(=O)N[C@@H](CC(=O)O)C(=O)N[C@H](C(=O)N[C@@H](CO)C(=O)N[C@@H](CCCNC(=N)N)C(=O)N1CCC[C@H]1C(=O)N[C@@H](CS)C(=O)N[C@H](C(=O)N[C@H](C(=O)N[C@@H](CC(=O)O)C(=O)N[C@@H](CCCCN)C(=O)N[C@@H](CC(=O)O)C(=O)N[C@@H](CS)C(=O)N[C@@H](CO)C(=O)N[C@@H](CCCCN)C(=O)N[C@H](C(=O)N[C@@H](CCC(=O)O)C(=O)N[C@@H](Cc1ccc(O)cc1)C(=O)NCC(=O)N[C@@H](Cc1ccc(O)cc1)C(=O)N[C@@H](CCCCN)C(=O)N[C@@H](CC(C)C)C(=O)N[C@@H](CCCNC(=N)N)C(=O)N[C@@H](CS)C(=O)N[C@@H](CCCNC(=N)N)C(=O)N[C@@H](CCCCN)C(=O)NCC(=O)N[C@@H](CCCNC(=N)N)C(=O)N[C@@H](CS)C(=O)N[C@H](C(=O)N[C@@H](Cc1c[nH]cn1)C(=O)N[C@H](C(=O)N1CCC[C@H]1C(=O)N[C@@H](CCCNC(=N)N)C(=O)O)[C@@H](C)CC)C(C)C)C(C)C)[C@@H](C)O)[C@@H](C)O)C(C)C)[C@@H](C)O)C(C)C [NCR533] (H-SSPIRVTDVSRPCTTDKDCSKVEYGYKLRCRKGRCVHIPR-OH; N-terminus assumed) | 25 (≈ 115 µg/mL) | – | –
CC(C)C[C@H](NC(=O)[C@H](CS)NC(=O)[C@@H](NC(=O)[C@H](CS)NC(=O)[C@H](CCCCN)NC(=O)[C@@H](NC(=O)[C@@H](NC(=O)[C@H](CCC(=O)O)NC(=O)[C@@H]1CCCN1C(=O)[C@@H]1CCCN1C(=O)[C@@H](NC(=O)[C@H](CS)NC(=O)[C@H](CCCCN)NC(=O)[C@H](CC(C)C)NC(=O)[C@@H](NC(=O)[C@@H](N)CCCCN)C(C)C)[C@@H](C)O)C(C)C)C(C)C)[C@@H](C)O)C(=O)N[C@@H](CS)C(=O)NCC(=O)N[C@@H](CCCCN)C(=O)N[C@@H](CCCNC(=N)N)C(=O)N[C@H](C(=O)N[C@@H](CC(C)C)C(=O)N[C@@H](Cc1ccc(O)cc1)C(=O)O)[C@@H](C)O [NCR649] (H-KVLKCTPPEVVKCTCLCGKRTLY-OH; N-terminus assumed) | – | – | Activity against L. monocytogenes [4]: active; Activity against A. baumannii [5]: active
AYYECSNDSACQATTKCVLPRVPRCIKYKCLCGNSNGSGNRWSTRPNRIQKGSTESNYF-OH (cysteines drawn unpaired) [NCR384] | – | able to kill all tested bacteria except E. faecalis and K. pneumoniae | –
GRYTTPWCVRDIDCPKEKCKHPFKPRCLTHSCVCRLWGSQDVI-OH (cysteines drawn unpaired) [NCR281] | – | – | Activity against L. monocytogenes [4]: active; Activity against P. aeruginosa [2, 6]: active
KCYQDSDCPKDMCSFLFKPKCIFTRYFPIYLGGICGCDRKTCP-OH (cysteines drawn unpaired) [NCR645] | – | kill all bacteria except E. faecalis | –
MKNGCKHTGHCPRKMCGAKTTKCRNNKCQCV [NCR192] | – | all active, with the exception of NCR192 | –

Source: article PMC9218685, “Legume Plant Peptides as Sources of Novel Antimicrobial Molecules Against Human Pathogens” (Frontiers in Molecular Biosciences, 2022)
